We go through one substance from US11370880B1 (FLORIDA ATLANTIC UNIVERSITY BOARD OF TRUSTEES, priority 2018, dated 2022).

For the series, the system named is HUVEC cells.

Procedure: Human umbilical vein endothelial cells (HUVECs) were grown in endothelial growth medium (EGM-2, Lonza) supplemented with 10% fetal bovine serum (Gibco) and 1% PSG (Penicillin-Streptomycin-Glutamine, Gibco). […] At the same time, the cellular toxicity of degradation product of PXDDA on HUVEC cells was also evaluated. For this purpose, 104 cells were first seeded and cultured on the 96-well plates for 3 days. The degradation products were diluted with culture medium to obtain different concentrations (12.5, 25, and 40% v/v), and they were then added into the cells. After 36 h, 20 μl of MTT solution was added and the plated was incubated at 37° C. for 4 h. After adding 200 μl of DMSO, the absorbance was recorded at 570 nm. The measurements were carried out in triplicate.

As to “poly(xylitol-dodecanedioic acid) [PXDDA]”, the “toxicity of degradation products to HUVEC cells (MTT)” value was “No tangible toxicity”.
